What was measured:
Assay in all cases: Glasshouse herbicide test, pre- and post-emergence, percentage damage
Format in all cases: in vivo
[1] = tested on: Echinochloa crus-galli (ECHCG); details: 250 g/h, evaluated after 13 days, percentage damage on five point scale; for ECHCG POST: post-emergence; for ECHCG PRE: pre-emergence
Protocol: (§1) Seeds of a variety of test species are sown in standard soil in pots (Lolium perenne (LOLPE), Setaria faberi (SETFA), Alopecurus myosuroides (ALOMY), Echinochloa crus-galli (ECHCG), Avena fatua (AVEFA)). After cultivation for one day (pre-emergence) or after 8 days cultivation (post-emergence) under controlled conditions in a glasshouse (at 24/16° C., day/night; 14 hours light; 65% humidity), the plants are sprayed with an aqueous spray solution derived from the formulation of the technical active ingredient in acetone/water (50:50) solution containing 0.5% Tween 20 (polyoxyethelyene sorbitan monolaurate, CAS RN 9005-64-5). Compounds are applied at […]. The test plants are then grown in a glasshouse under controlled conditions in a glasshouse (at 24/16° C., day/night; 14 hours light; 65% humidity) and watered twice daily. After 13 days for pre and post-emergence, the test is evaluated for the percentage damage caused to the plant. The biological activities are shown in the following table on a five point scale (5=80-100%; 4=60-79%; 3=40-59%; 2=20-39%; 1=0-19%).

Avena fatua (AVEFA) = details: 250 g/h, evaluated after 13 days, percentage damage on five point scale; for AVEFA POST: post-emergence; for AVEFA PRE: pre-emergence
Protocol: as §1

Setaria faberi (SETFA) = details: 250 g/h, evaluated after 13 days, percentage damage on five point scale; for SETFA POST: post-emergence; for SETFA PRE: pre-emergence
Protocol: as §1

Lolium perenne (LOLPE) = details: 250 g/h, evaluated after 13 days, percentage damage on five point scale; for LOLPE POST: post-emergence; for LOLPE PRE: pre-emergence
Protocol: as §1

[2] = tested on: Alopecurus myosuroides (ALOMY); details: 250 g/h, evaluated after 13 days, percentage damage on five point scale; for ALOMY POST: post-emergence; for ALOMY PRE: pre-emergence
Protocol: as §1

Structure (SMILES) | ECHCG POST [1] | ECHCG PRE [1] | AVEFA POST (Avena fatua (AVEFA)) | AVEFA PRE (Avena fatua (AVEFA)) | SETFA POST (Setaria faberi (SETFA)) | SETFA PRE (Setaria faberi (SETFA)) | LOLPE POST (Lolium perenne (LOLPE)) | LOLPE PRE (Lolium perenne (LOLPE)) | ALOMY POST [2] | ALOMY PRE [2]
CC(=O)OC1=C(c2c(C)cc(-c3ccc(F)cc3)cc2C)C(=O)CC2(CCN(C(C)=O)CC2)C1 [Compound P1] | 5 (5=80-100%) | 5 (5=80-100%) | 5 (5=80-100%) | 5 (5=80-100%) | 5 (5=80-100%) | 5 (5=80-100%) | 5 (5=80-100%) | 5 (5=80-100%) | 5 (5=80-100%) | 5 (5=80-100%)
COc1cc(-c2ccc(C#N)cn2)cc(C)c1C1C(=O)CC2(CCN(C(C)=O)CC2)CC1=O [Compound A18] | 5 (5=80-100%) | 5 (5=80-100%) | 5 (5=80-100%) | 5 (5=80-100%) | 5 (5=80-100%) | 5 (5=80-100%) | 5 (5=80-100%) | 5 (5=80-100%) | 5 (5=80-100%) | 4 (4=60-79%)
COc1cc(-c2ccc(F)cc2)cc(C)c1C1C(=O)CC2(CCN(C(C)=O)CC2)CC1=O [Compound A21] | 5 (5=80-100%) | 5 (5=80-100%) | 5 (5=80-100%) | 5 (5=80-100%) | 5 (5=80-100%) | 5 (5=80-100%) | 5 (5=80-100%) | 5 (5=80-100%) | 5 (5=80-100%) | 5 (5=80-100%)
COc1cc(-c2ncc(F)cn2)cc(C)c1C1C(=O)CC2(CCN(C(C)=O)CC2)CC1=O [Compound A17] | 5 (5=80-100%) | 5 (5=80-100%) | 5 (5=80-100%) | 5 (5=80-100%) | 5 (5=80-100%) | 5 (5=80-100%) | 5 (5=80-100%) | 5 (5=80-100%) | 5 (5=80-100%) | 5 (5=80-100%)
CC(=O)N1CCC2(CC1)CC(=O)C(c1c(C)cc(-c3ncc(C#N)cn3)cc1C)C(=O)C2 [Compound A52] | 5 (5=80-100%) | 5 (5=80-100%) | 5 (5=80-100%) | 5 (5=80-100%) | 5 (5=80-100%) | 5 (5=80-100%) | 5 (5=80-100%) | 5 (5=80-100%) | 5 (5=80-100%) | 5 (5=80-100%)
Cc1cc(-c2ccc(C#N)cn2)cc(C)c1C1C(=O)CC2(CCN(C(=O)C(C)(C)C)CC2)CC1=O [Compound A30] | 5 (5=80-100%) | 5 (5=80-100%) | 5 (5=80-100%) | 3 (3=40-59%) | 5 (5=80-100%) | 5 (5=80-100%) | 5 (5=80-100%) | 5 (5=80-100%) | 5 (5=80-100%) | 5 (5=80-100%)
Cc1cc(-c2ccc(F)cc2)cc(C)c1C1C(=O)CC2(CCN(C(=O)NC(=O)C(C)(C)C)CC2)CC1=O [Compound A58] | 5 (5=80-100%) | 5 (5=80-100%) | 5 (5=80-100%) | 4 (4=60-79%) | 5 (5=80-100%) | 5 (5=80-100%) | 5 (5=80-100%) | 5 (5=80-100%) | – | 5 (5=80-100%)
Cc1cc(-c2ccc(F)cc2)cc(C)c1C1C(=O)CC2(CCN(C(=O)C(C)(C)C)CC2)CC1=O [Compound A61] | 5 (5=80-100%) | 5 (5=80-100%) | 4 (4=60-79%) | 2 (2=20-39%) | 5 (5=80-100%) | 5 (5=80-100%) | 5 (5=80-100%) | 5 (5=80-100%) | – | 5 (5=80-100%)
COc1cc(-c2ccc(F)cc2)cc(OC)c1C1C(=O)CC2(CCN(C(C)=O)CC2)CC1=O [Compound A20] | 5 (5=80-100%) | 5 (5=80-100%) | 5 (5=80-100%) | 5 (5=80-100%) | 5 (5=80-100%) | 5 (5=80-100%) | 5 (5=80-100%) | 5 (5=80-100%) | 5 (5=80-100%) | 5 (5=80-100%)
Cc1cc(-c2ccc(C#N)cn2)cc(C)c1C1C(=O)CC2(CCN(C(=O)C(F)F)CC2)CC1=O [Compound A29] | 4 (4=60-79%) | 1 (1=0-19%) | 5 (5=80-100%) | 5 (5=80-100%) | 5 (5=80-100%) | 5 (5=80-100%) | 5 (5=80-100%) | 1 (1=0-19%) | 5 (5=80-100%) | –
Cc1cc(-c2ncc(F)cn2)cc(C)c1C1C(=O)CC2(CCN(C(=O)c3ccccn3)CC2)CC1=O [Compound A34] | 5 (5=80-100%) | 5 (5=80-100%) | 5 (5=80-100%) | 5 (5=80-100%) | 5 (5=80-100%) | 5 (5=80-100%) | 5 (5=80-100%) | 5 (5=80-100%) | 5 (5=80-100%) | 5 (5=80-100%)
COc1cc(-c2ccc(F)cc2)cc(C)c1C1C(=O)CC2(CCN(C(=O)C(C)O)CC2)CC1=O (stereo not drawn) [Compound A75] | 5 (5=80-100%) | 5 (5=80-100%) | 5 (5=80-100%) | 5 (5=80-100%) | 5 (5=80-100%) | 5 (5=80-100%) | 5 (5=80-100%) | 5 (5=80-100%) | 5 (5=80-100%) | 5 (5=80-100%)

From patent US11980188B2, “Spiro cyclohexanedione derivates as herbicides” (SYNGENTA PARTICIPATIONS AG, priority 2018, dated 2024)
